According to patent US7390796B2, “Fatty acid modified forms of glucocorticoids” (Sepracor Inc., priority 2002, dated 2008):

What was measured:
[1] = system: WI-38 cells; assay: Wash-out (duration of action) experiment, PGE2 production in IL-1β-stimulated WI-38 cells; type: cell-based, human; details: 2 hours at 50 times the IC50, washed 5 times, IL-1β stimulation, 24 hours
Procedure: (§1) The WI-38 human lung fibroblast line was obtained from the ATCC (catalog number 75-CCL) and maintained in Basel Medium Eagle with Earle's salts (GibcoBRL product number 21010-046) supplemented with 2 mM glutamine and 10% fetal calf serum at 37° C. in a 7% CO2 (balance air), humidified atmosphere. One week before experiments were done, the WI-38 cells were seeded into 48-well tissue culture dishes and maintained in media containing 10% fetal calf serum. The cells were used when confluent. The day before the experiment the cells were fed fresh media containing 10% fetal calf serum (0.25 ml per well). One the day of the experiment the media was removed from the cells and 0.25 ml of media containing 5% fetal calf serum added.
(§2) To test for duration of action, a wash-out experiment was performed as follows. Confluent cells in 48-well tissue culture dishes were treated with concentrations of the above compounds that were 50 times the IC50 values as determined above for 2 hours. The media was removed and the wells washed 5 times with 0.25 ml of media containing 5% fetal calf serum. 0.25 ml of media containing 5% fetal calf serum was then added. The WI-38 cells were stimulated by addition of 0.001 ml of 0.025 ug/ml recombinant human Interleukin-1β (Calbiochem catalog number 407615) in 0.1% bovine serum albumin in phosphate buffered saline. The RAW 264.7 cells were stimulated by addition of 0.001 ml of 0.5 ug/ml E. coli 0127:B8 lipopolysaccharide (LPS-Sigma catalog number L-4516) in 0.1% bovine serum albumin in phosphate buffered saline. The cells were incubated for 24 hours and the supernatants harvested. The level of PGE2 in the supernatants was assayed using a commercial Enzyme Immuno Assay (EIA) kit (Cayman Chemical catalog number 514010) after diluting 1:10 in EIA buffer according to the manufacturer's directions. Eight wells were used for each concentration and the results from these eight wells were averaged.

[2] = system: RAW 264.7 cells; assay: Wash-out (duration of action) experiment, PGE2 production in LPS-stimulated RAW 264.7 cells; type: cell-based, rat; details: 2 hours at 50 times the IC50, washed 5 times, E. coli LPS stimulation, 24 hours
Procedure: The […] cell line RAW 264.7 was obtained from the ATCC (catalog number 71-TIB) and maintained in Dulbecco's Modified Eagle Medium (GibcoBRL product number 11960-044) supplemented with 2 mM glutamine, 1 mM sodium pyruvate and 10% fetal calf serum at 37° C. in a 10% CO2 (balance air), humidified atmosphere. One week before experiments were done, the WI-38 cells were seeded into 48-well tissue culture dishes and maintained in media containing 10% fetal calf serum. The cells were used when confluent. The day before the experiment the cells were fed fresh media containing 10% fetal calf serum (0.25 ml per well). One the day of the experiment the media was removed from the cells and 0.25 ml of media containing 5% fetal calf serum added.
as §2

[3] = system: WI-38 cells; assay: IC50 for inhibition of IL-1β-stimulated PGE2 production in WI-38 cells; type: cell-based, human; details: PGE2 in supernatant, IL-1β stimulation, 24 hours, EIA
Procedure: Nominal 5 mM solutions of the budesonide fatty acid esters were made in DMSO by adding the following amounts of compound and DMSO: docosahexaenoic acid ester of budesonide 7.5 mg in 2 ml DMSO, docosapentaenoic acid ester of budesonide 32.9 mg in 9.1 ml DMSO and eicosapentaenoic acid ester of budesonide 20.3 mg in 5.8 ml DMSO. A 5 mM solution of budesonide was made by dissolving 4.5 mg of budesonide (Sigma Chemical Company product number B 7777) in 2.1 ml DMSO.
as §1
To determine the IC50 values for the compounds, 1 to 1000 dilutions were made of the 5 mM stock solutions in DMSO to give 5 uM solutions. These solutions were serially diluted 1:2 in DMSO to give a series of 12 dilutions ranging from 5 uM to 2.4 nM. 0.0025 ml aliquots of the 12 dilutions were added to wells of the WI-38 cells to give final compound concentrations ranging from 50 nM to 0.024 nM. The cells were stimulated by addition of 0.001 ml of 0.025 ug/ml recombinant human Interleukin-1β (IL-1β-Calbiochem catalog number 407615) in 0.1% bovine serum albumin in phosphate buffered saline. The cells were incubated for 24 hours and the supernatants harvested. The level of PGE2 in the supernatants was assayed using a commercial Enzyme Immuno Assay (EIA) kit (Cayman Chemical catalog number 514010) after diluting 1:10 in EIA buffer according to the manufacturer's directions. The data from these experiments was fit to a 4 parameter logistic function using the IC50 routine in the Grafit 4 program (Erithecus software).

[4] = system: paw edema; assay: Rat paw edema model; type: in vivo
Procedure: Putative anti-inflammatory agents may also be tested in vivo in a rat paw edema model [Hirschelmann, R. and Bekemeier, H., Int J Tissue React 6, 471-475 (1984)], which persons of skill in the art accept as predictive of efficacy in treating asthma and rhinitis in humans. The phytanic acid ester of budesonide was tested in this model.

`CCCC1O[C@@H]2C[C@H]3[C@@H]4CCC5=CC(=O)C=C[C@]5(C)[C@H]4[C@@H](O)C[C@]3(C)[C@]2(C(=O)CO)O1` (stereo partly shown) [Budesonide, budesonide, reference compound] was tested. Which PGE2 production [1] did it give?
Its PGE2 production is 2688 pg/mL.

And the PGE2 production [2]?
The PGE2 production was 1339 pg/mL.

And the IC50 ([3]; Homo sapiens, WI-38)?
The IC50 was 0.2 nM.

What about the “percent reduction in paw volume” value ([4]; dose 0.001 μg/paw, 1.5 hours) of the same molecule?
Its value is 0%.

And the “percent reduction in paw volume” value ([4]; dose 0.001 μg/paw, 3 hours)?
The value was 20%.

What about the “percent reduction in paw volume” value ([4]; dose 0.001 μg/paw, 4.5 hours) of the same molecule?
Its value is 15%.

And the “percent reduction in paw volume” value ([4]; dose 0.001 μg/paw, 24 hours)?
The value was 4%.

And the “percent reduction in paw volume” value ([4]; dose 0.001 μg/paw, 48 hours)?
The value was 3%.

What about the “percent reduction in paw volume” value ([4]; dose 0.001 μg/paw, 72 hours) of the same molecule?
Its value is 0%.

What about the “percent reduction in paw volume” value ([4]; dose 0.01 μg/paw, 1.5 hours) of the same molecule?
Its value is 0%.

What about the “percent reduction in paw volume” value ([4]; dose 0.01 μg/paw, 3 hours) of the same molecule?
The value was 18%.

What about the “percent reduction in paw volume” value ([4]; dose 0.01 μg/paw, 4.5 hours) of the same molecule?
Its value is 0%.

What about the “percent reduction in paw volume” value ([4]; dose 0.01 μg/paw, 24 hours) of the same molecule?
Its value is 11%.

What about the “percent reduction in paw volume” value ([4]; dose 0.01 μg/paw, 48 hours) of the same molecule?
Its value is 0%.

What about the “percent reduction in paw volume” value ([4]; dose 0.01 μg/paw, 72 hours) of the same molecule?
Its value is 3%.

What about the “percent reduction in paw volume” value ([4]; dose 0.1 μg/paw, 1.5 hours) of the same molecule?
Its value is 14%.

What about the “percent reduction in paw volume” value ([4]; dose 0.1 μg/paw, 3 hours) of the same molecule?
The value was 5%.

And the “percent reduction in paw volume” value ([4]; dose 0.1 μg/paw, 4.5 hours)?
Its value is 0%.

And the “percent reduction in paw volume” value ([4]; dose 0.1 μg/paw, 24 hours)?
Its value is 0%.

What about the “percent reduction in paw volume” value ([4]; dose 0.1 μg/paw, 48 hours) of the same molecule?
Its value is 0%.

What about the “percent reduction in paw volume” value ([4]; dose 0.1 μg/paw, 72 hours) of the same molecule?
Its value is 0%.

What about the “percent reduction in paw volume” value ([4]; dose 1 μg/paw, 1.5 hours) of the same molecule?
The value was 36%.

What about the “percent reduction in paw volume” value ([4]; dose 1 μg/paw, 3 hours) of the same molecule?
Its value is 45%.

What about the “percent reduction in paw volume” value ([4]; dose 1 μg/paw, 4.5 hours) of the same molecule?
Its value is 32%.

What about the “percent reduction in paw volume” value ([4]; dose 1 μg/paw, 24 hours) of the same molecule?
Its value is 44%.

And the “percent reduction in paw volume” value ([4]; dose 1 μg/paw, 48 hours)?
Its value is 17%.

And the “percent reduction in paw volume” value ([4]; dose 1 μg/paw, 72 hours)?
Its value is 10%.

What about the “percent reduction in paw volume” value ([4]; dose 10 μg/paw, 1.5 hours) of the same molecule?
The value was 11%.

And the “percent reduction in paw volume” value ([4]; dose 10 μg/paw, 3 hours)?
The value was 33%.

What about the “percent reduction in paw volume” value ([4]; dose 10 μg/paw, 4.5 hours) of the same molecule?
The value was 34%.

And the “percent reduction in paw volume” value ([4]; dose 10 μg/paw, 24 hours)?
Its value is 70%.

What about the “percent reduction in paw volume” value ([4]; dose 10 μg/paw, 48 hours) of the same molecule?
Its value is 38%.

What about the “percent reduction in paw volume” value ([4]; dose 10 μg/paw, 72 hours) of the same molecule?
Its value is 6%.

With `CCC=CCC=CCC=CCC=CCC=CCC=CCCC(=O)OCC(=O)C12OC(CCC)OC1CC1C3CCC4=CC(=O)C=CC4(C)C3C(O)CC12C` (stereo not shown) [Docosahexaenoic acid ester of budesonide, docosahexaenoic acid ester of budesonide] as the molecule, how does the PGE2 production [1] read?
Its PGE2 production is 2075 pg/mL.

And the PGE2 production [2]?
The PGE2 production was 892 pg/mL.

What about the IC50 [3] of the same molecule?
Its IC50 is 1.1 nM.

What does the source list for `CCCC1OC2CC3C4CCC5=CC(=O)C=CC5(C)C4C(O)CC3(C)C2(C(=O)COC(=O)CC(C)CCCC(C)CCCC(C)CCCC(C)C)O1` (stereo not shown) [Phytanic acid ester of Budesonide, phytanic acid ester of budesonide]?
percent reduction in paw volume ([4]; dose 0.0017 μg/paw, 1.5 hours): 0%; percent reduction in paw volume ([4]; dose 0.0017 μg/paw, 3 hours): 10%; percent reduction in paw volume ([4]; dose 0.0017 μg/paw, 4.5 hours): 12%; percent reduction in paw volume ([4]; dose 0.0017 μg/paw, 24 hours): 4%; percent reduction in paw volume ([4]; dose 0.0017 μg/paw, 48 hours): 7%; percent reduction in paw volume ([4]; dose 0.0017 μg/paw, 72 hours): 3%; percent reduction in paw volume ([4]; dose 0.017 μg/paw, 1.5 hours): 0%; percent reduction in paw volume ([4]; dose 0.017 μg/paw, 3 hours): 0%; percent reduction in paw volume ([4]; dose 0.017 μg/paw, 4.5 hours): 0%; percent reduction in paw volume ([4]; dose 0.017 μg/paw, 24 hours): 0%; percent reduction in paw volume ([4]; dose 0.017 μg/paw, 48 hours): 0%; percent reduction in paw volume ([4]; dose 0.017 μg/paw, 72 hours): 6%; percent reduction in paw volume ([4]; dose 0.17 μg/paw, 1.5 hours): 0%; percent reduction in paw volume ([4]; dose 0.17 μg/paw, 3 hours): 0%; percent reduction in paw volume ([4]; dose 0.17 μg/paw, 4.5 hours): 0%; percent reduction in paw volume ([4]; dose 0.17 μg/paw, 24 hours): 0%; percent reduction in paw volume ([4]; dose 0.17 μg/paw, 48 hours): 0%; percent reduction in paw volume ([4]; dose 0.17 μg/paw, 72 hours): 0%; percent reduction in paw volume ([4]; dose 1.7 μg/paw, 1.5 hours): 18%; percent reduction in paw volume ([4]; dose 1.7 μg/paw, 3 hours): 15%; percent reduction in paw volume ([4]; dose 1.7 μg/paw, 4.5 hours): 2%; percent reduction in paw volume ([4]; dose 1.7 μg/paw, 24 hours): 30%; percent reduction in paw volume ([4]; dose 1.7 μg/paw, 48 hours): 17%; percent reduction in paw volume ([4]; dose 1.7 μg/paw, 72 hours): 16%; percent reduction in paw volume ([4]; dose 17 μg/paw, 1.5 hours): 11%; percent reduction in paw volume ([4]; dose 17 μg/paw, 3 hours): 5%; percent reduction in paw volume ([4]; dose 17 μg/paw, 4.5 hours): 2%; percent reduction in paw volume ([4]; dose 17 μg/paw, 24 hours): 74%; percent reduction in paw volume ([4]; dose 17 μg/paw, 48 hours): 79%; percent reduction in paw volume ([4]; dose 17 μg/paw, 72 hours): 65%; duration of effect ([4]; rat paw edema model, summary in words): greatly extended duration of effect

How did the PGE2 production [1] turn out when `CCC=CCC=CCC=CCC=CCC=CCCCCCC(=O)OCC(=O)C12OC(CCC)OC1CC1C3CCC4=CC(=O)C=CC4(C)C3C(O)CC12C` (stereo not shown) [docosapentaenoic acid ester of budesonide] was run?
The PGE2 production was 200 pg/mL.

And the PGE2 production [2]?
Its PGE2 production is 622 pg/mL.

And the IC50 [3]?
The IC50 was 9 nM.

With `CCC=CCC=CCC=CCC=CCC=CCCCC(=O)OCC(=O)C12OC(CCC)OC1CC1C3CCC4=CC(=O)C=CC4(C)C3C(O)CC12C` (stereo not shown) [eicosapentaenoic acid ester of budesonide] as the molecule, how does the PGE2 production [1] read?
The PGE2 production was 806 pg/mL.

What about the PGE2 production [2] of the same molecule?
The PGE2 production was 576 pg/mL.

And the IC50 [3]?
Its IC50 is 1.3 nM.
